The values below come from PubChem BioAssay (NCI).

What all share (experiment): inhibition of tumour cell growth, NCI panel, 48 h
For test [1], the system named is COLO 205 colon.
Test [2] has as its system EKVX NSCLC.
In test [3] the test system is HCT-15 colon.
The test system of test [4] is K-562 leukemia.
Test [5] has as its system OVCAR-4 ovarian.
Test [6] deals with SR leukemia.
The subject of test [7] is TK-10 renal.
Test [8] has as its system UACC-62 melanoma.
Test [9] concerns CCRF-CEM leukemia.
Test [10] has as its system HCC-2998 colon.

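A five-concentration, 48-hour dose response in 96-well plates underlies each endpoint, interpolated linearly between surrounding concentrations. GI50 is the concentration that inhibits growth by half. TGI: concentration producing complete growth inhibition.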

For the compound `CN1CCc2nc(N)nc(-c3nc(N)nc4c3CN(C)CC4)c2C1`, the TGI in [1], in test [2], in test [3], in test [4], in test [5] and in [6] was over 100 µM throughout. The TGI in test [7] and in test [8] was over 100 µM each time.

With `O=C1C2C3C=C4c5ccccc5N(c5ccccc5)C4(C2C(=O)N1c1ccc([N+](=O)[O-])cc1)[C@H]1C(=O)N(c2ccc([N+](=O)[O-])cc2)C(=O)[C@@H]31` (stereo not given in full), the TGI in test [9], in test [1], in test [2], in test [10], in test [3] and in [4] was over 100 µM in each case. The TGI in test [5], in test [7] and in test [8] was over 100 µM in each case.

With `Clc1cc(Cl)c2ns[s+]c2c1Cl`, the TGI in [9], in test [1], in [2], in test [4], in test [5] and in [6] was over 100 µM each time. Moreover, the TGI in test [7] and in [8] was over 100 µM each time.

In the case of `NC(=O)c1cc(Cl)ccc1NC(=O)/C=C/c1ccccc1`, the GI50 in test [9] is 2.96 µM; in test [1], 2.16 µM; in [2] it was 2.83 µM; in test [10], 0.487 µM; in test [3], 2.38 µM; in test [4], 0.806 µM. Also, the GI50 in test [5] was 2.77 µM; in test [7] it was 7.31 µM; in test [8] it was 2.18 µM. Besides, the TGI in test [9] was over 100 µM; in test [1], over 24.1 µM; in test [2], over 100 µM; in test [10] it was 2.79 µM; in [3], over 100 µM; in test [4], over 23.1 µM. Moreover, the TGI in test [5] was over 100 µM; in test [7] it was over 95.1 µM; in test [8] it was over 100 µM.

As for `COc1ccc2c3c([nH]c2c1[N+](=O)[O-])C(C)N(C)CC3` (stereo not given), the TGI in test [9] was 95.2 µM; in test [1] it was over 100 µM; in test [2], over 100 µM; in test [10], over 100 µM; in test [3] it was over 100 µM; in [4] it was 40.1 µM. Further, the TGI in test [5], in [7] and in test [8] was over 100 µM throughout.

In the case of `O=C(N/N=C/c1cc(Br)ccc1O)N/N=C/c1cc(Br)ccc1O`, the TGI in [9], in test [1], in test [2], in [4], in test [5] and in test [6] was over 100 µM each time. Also, the TGI in [7] was over 100 µM.

Take `Cn1c(O)c(C(=O)NC2CCCCC2)c(=O)n(C)c1=S`: the TGI was over 100 µM in test [9]; 4.42 µM in test [1]; 25.9 µM in [3]; 42.7 µM in [5]; 48.9 µM in test [6]; 33.3 µM in [7]. Further, in test [8], the TGI was determined as 14.4 µM.

Regarding `COC(=O)C(CC(=O)Nc1ccc(C)cc1)C(=O)C(=O)Nc1c(C(C)C)cccc1C(C)C` (stereo not given), the TGI in test [9], in test [1], in test [2], in [10], in test [3] and in [4] was over 100 µM throughout. Further, the TGI in test [5], in test [7] and in test [8] was over 100 µM each time.

Consider `COc1ccc(-c2cc(-c3cc(C)cc(Br)c3O)no2)cc1`, for which the TGI was 78.3 µM in test [2]; over 100 µM in test [3]; over 100 µM in test [4]; 13.2 µM in [5]; over 100 µM in test [6]; 38.5 µM in test [7]. Moreover, the TGI in [8] is 38.9 µM.

As for `CC12OC(C(=O)C13CC3)C1C(=O)c3ccc4c(ccc5ccccc54)c3C(=O)C12` (stereo not given), the GI50 in test [9] was 29.5 µM; in test [1], 32.2 µM; in test [2], 51.3 µM; in test [10], 20.4 µM; in test [4] it was 47.6 µM; in [7], 37.1 µM. For the same compound, the TGI in [9], in test [1], in test [2], in test [10], in [4] and in test [7] was over 100 µM in each case.

Regarding `Cc1cc(NC(=S)SCc2ccc(F)cc2)c([N+](=O)[O-])cc1C`, the TGI in test [1] was 37.2 µM; in test [2], 91.3 µM; in test [3], 46.4 µM; in [4], over 100 µM; in test [5] it was over 100 µM; in test [6], 43.9 µM. Further, the TGI in test [7] was determined as 65.4 µM; in test [8] it was 31.3 µM.

`O=C(Nc1ccccc1-c1nc2ccccc2[nH]c1=O)c1ccccc1`: the TGI in test [9] is over 100 µM; in [1], over 100 µM; in test [2], 70.3 µM; in test [10], 33.7 µM; in [3] it was over 100 µM; in [4], over 100 µM. Moreover, the TGI in test [5] is 50.6 µM; in test [7], 31.6 µM; in test [8], 75.2 µM.

Take `NNC(=S)N/N=C(/C(=O)Nc1ccc(Cl)c(Cl)c1)C(C1OC(=O)c2ccccc21)[N+](=O)[O-]` (stereo not given): the TGI in [9], in [2], in test [10], in test [3], in [4] and in test [5] was over 100 µM throughout. The TGI in [7] and in test [8] was over 100 µM throughout.

For `CC(C)c1ccc(-c2cc(-c3cn[nH]c3-c3ccccn3)ccn2)cc1`, the GI50 in test [9] is 10.8 µM; in test [1], 13.3 µM; in test [2] it was 11.3 µM; in test [10] it was 10.4 µM; in [3], 8.65 µM; in test [4] it was 9.03 µM. For the same compound, the results for the GI50 in [5], in test [7] and in test [8] were 10.4 µM, over 18.6 µM and 17.2 µM, respectively. Moreover, the TGI in [9], in test [1], in [2], in [10], in test [3] and in test [4] was over 25 µM each time. In addition, the TGI in test [5], in test [7] and in test [8] was over 25 µM each time.

For `O=C1/C(=C(/c2ccccc2)N2CCOCC2)Cc2ccccc21`, the GI50 is 0.467 µM in test [9]; 1.34 µM in test [1]; 3.21 µM in [2]; 2.08 µM in test [10]; 1.55 µM in test [3]; 3.42 µM in test [4]. Further, the GI50 in test [5] is 1.52 µM; in test [7], 1.29 µM; in test [8] it was 1.79 µM. The TGI amounted to 2.67 µM in test [9]; 2.94 µM in test [1]; 13.5 µM in [2]; 4.26 µM in [10]; 5.02 µM in [3]; 3 µM in test [5]. The TGI in test [7] came out at 2.66 µM; in test [8], 4.24 µM.

For `c1ccc(C2N3CCCCC3[C@@H]3c4[nH]c5ccccc5c4CCN23)nc1` (stereo not given in full), the TGI in test [9], in test [2], in test [3], in test [4], in [5] and in test [7] was over 100 µM throughout. The compound further returned a TGI in [8] of over 100 µM.

As for `COc1cc2c(cc1OCCCCC(=O)Nc1cc3c4ccccc4ccc3c3ccccc13)N=C[C@@H]1CCCN1C2=O`, the GI50 in test [9] was 1.55 µM; in test [1], 7.65 µM; in test [2] it was 17.3 µM; in test [10], 10.9 µM; in test [3], 12.5 µM; in test [4] it was 1.55 µM. In addition, the values for the GI50 in [5], in [7] and in [8] were 5.16 µM, 2.33 µM and 0.658 µM, respectively. In addition, the TGI in [9] is over 100 µM; in test [1], over 100 µM; in [2], 64.2 µM; in [10] it was 33.5 µM; in test [3], over 52.6 µM; in [4] it was over 38.9 µM. Also, the TGI in [5] was 22.8 µM; in test [7], 5.73 µM; in test [8], 8.24 µM.

As to `COC(=O)[C@@]12C(=O)C=CC(=O)C1C1C(=CC2C)OC2OC3(CCCCC3)OC21` (stereo not given in full), the TGI in [9] was 7.49 µM; in test [1], 28.4 µM; in test [2], 37.8 µM; in test [10], 28.2 µM; in [3], 31.1 µM; in test [4], 74.6 µM. For the same compound, the TGI in test [5] is 30.3 µM; in [7], 31.6 µM; in test [8], 29 µM.

For the compound `CCOC(=O)/C(C)=C(/O)C(=O)OCC`, the TGI in test [9], in test [1], in test [2], in test [10], in test [3] and in [4] was over 100 µM each time. The TGI in test [5], in test [7] and in test [8] was over 100 µM each time.

Take `COc1cc(/C=C/c2ccc(OC)c(O)c2)cc(OC)c1`: the TGI was found to be 15.2 µM in test [9]; 59.3 µM in [1]; 90 µM in test [2]; 42.6 µM in test [10]; 24.2 µM in [3]; 8.64 µM in test [4]. For the same compound, the TGI was 67.9 µM in test [5], 91.4 µM in test [7] and 15.1 µM in test [8].

On to `COc1cc2c3c(n(CCCN)c(=O)c2cc1OC)-c1ccc(C#N)cc1C3=O`, for which the GI50 was 6.44 µM in [9]; 13.2 µM in [1]; 19 µM in test [2]; 3.05 µM in test [10]; 15.4 µM in test [3]; 20 µM in [5]. Also, the GI50 is 16.9 µM in test [7] and 17 µM in test [8]. For the same compound, the TGI in test [9] was 31.7 µM; in [1], 28.7 µM; in test [2] it was 41.9 µM; in [10], 15 µM; in test [3], 30.6 µM; in test [4], 65.4 µM. Besides, the results for the TGI in test [5], in test [7] and in test [8] were 41.3 µM, 41.3 µM and 32.2 µM, respectively.

For the compound `Cc1nnc(NS(=O)(=O)c2ccc(N=Nc3cc(N=Nc4ccc(S(=O)(=O)Nc5nnc(C)s5)cc4)c4c(NC(=O)C(Cl)Cl)cccc4c3OC(=O)C(Cl)Cl)cc2)s1` (tested in a mixture with another compound), the TGI is over 100 µM in test [9]; over 100 µM in test [1]; 89.2 µM in test [2]; 62.1 µM in test [10]; over 100 µM in test [3]; 77.8 µM in [4]. For the same compound, the TGI in test [5] came to 39 µM; in [7] it was 95.6 µM; in test [8], 89.1 µM.

As to `CC(=O)O[C@H]1CCC2[C@@H]3CC[C@]4(C)CC(=O)C=C[C@]4(C)C3CC[C@@]21C` (stereo not given in full), the TGI is 57.9 µM in test [9]; 31.3 µM in [1]; over 90.5 µM in [2]; over 88.5 µM in test [10]; 38.7 µM in test [3]; over 100 µM in test [4]. Besides, the values for the TGI in test [5], in test [7] and in test [8] were 31.8 µM, over 100 µM and 30.4 µM, respectively.

Regarding `COc1ccc(CN2CC(C)(C)C2=O)c(OC)c1`, the TGI in test [9], in test [1], in [2], in test [10], in [3] and in [4] was over 100 µM each time. In addition, the TGI in test [5], in test [7] and in test [8] was over 100 µM each time.

Turning to `Cc1cc(N(CCC#N)CCC#N)ccc1/C=C(\NC(=O)/C=C/c1ccccc1)C(N)=O`, the TGI in test [9], in test [1], in test [2], in test [10], in [3] and in [4] was over 100 µM throughout. Also, the TGI in [7] and in [8] was over 100 µM in each case.

As for `CCOC(=O)N[C@@H]1C(CC(=O)OC)O[C@H]2OC(C)(C)O[C@H]21` (stereo not given in full), the TGI in [9], in test [1], in [10], in test [3], in test [4] and in [5] was over 100 µM throughout. Moreover, in test [8], the TGI is over 100 µM.
